# According to patent US20210161189A1, “MONOESTER SUGAR DERIVATIVES AS FLAVOR MODIFIERS” (Firmenich SA, priority 2018, published 2021):
# Tested on: sensory panel
# Assay: Taste modifier properties in model systems (sensory panel of 15 persons, with/without noseclip)
# Type: in vivo, human
# Conditions: 100 ppm
# Description: The sensory properties of various compositions comprising a monoester derivative of glucose were tested in various model systems, outlined in Table 14 below. [table] FIGS. 12 to 18 report the sweetness modifier properties of each of the following compounds (tested at 100 ppm in the various mode systems described above): glucose-6-O-octanoate, glucose-6-O-acetate, glucose-6-O-hexanoate, glucose-6-O-decanoate, glucose-6-O-hexadecanoate, glucose-6-O-oleate and glucose-6-O-oleyl derivative. The sensory properties were evaluated by a sensory panel consisting of15 persons, where the properties were evaluated with the subjects wearing a noseclip (With NC), and without a noseclip (Without NC). The subjects evaluate the perceived intensities of different sensory attributes on a linear scale (“0” note intense to “10” very intense) for the corresponding model mixtures without and with the compound at 100ppm. The differences of perceived intensities between the model mixtures with and without the compound are represented for each attribute. A statistical data treatment (unilateral paired student test) is achieved on each attribute to conclude on a significant or not significant taste modulation effect of the compound.
# [1] = SG95-sour model system, with and without nose clip, significance 95%
# [2] = SG95, with nose clip, significance 95%
compound,measurement,setting,value
CC(=O)OC[C@@H](O)[C@@H](O)[C@H](O)[C@@H](O)C=O [glucose-6-O-acetate],Licorice taste modulation effect,SG95,slight masking effects
same,Sweet lingering modulation effect,SG95,slight masking effects
same,Bitterness modulation effect,model system not stated,slight bitterness masking effet
same,Sweet taste modulation effect,sucrose model mixture,slights enhancing sweetness effects
same,Taste modulation effects overall,tasted model systems,no significant modulation effects
CCCCCCCCCC(=O)OC[C@@H](O)[C@@H](O)[C@H](O)[C@@H](O)C=O [glucose-6-O-decanoate],Licorice taste modulation effect,"SG95-sour model system, without nose clip, significance 95%",significant licorice taste masking effect
same,Taste modulation effects,all the other model systems,no significant effects
CCCCCCCCCCCCCCCC(=O)OC[C@@H](O)[C@@H](O)[C@H](O)[C@@H](O)C=O [glucose-6-O-hexadecanoate],Sweet taste modulation effect,"SG95/sour model system, without nose clip, significance 95%",significant sweet masking effect
same,Round/thick/mouth coating modulation effect,"grapefruit beverage, significance 95%",significant round/thick/mouth coating enhancing effect
same,Bitter taste modulation effect,"with nose clip, significance 95%",significant bitter enhancing effect
CCCCCC(=O)OC[C@@H](O)[C@@H](O)[C@H](O)[C@@H](O)C=O [glucose-6-O-hexanoate],Licorice taste modulation effect,[1],significant licorice taste masking effect
same,Sour taste modulation effect,[1],significant sour enhancing effect
same,Sweet lingering modulation effect,[2],significant sweet and sweet lingering masking effects
same,Sweet taste modulation effect,[2],significant sweet and sweet lingering masking effects
same,Sweet taste modulation effect,"sweet and sour model system, with and without nose clip, significance 95%",significant sweet enhancing effect
CCCCCCCC/C=C\CCCCCCCC(=O)OC[C@@H](O)[C@@H](O)[C@H](O)[C@@H](O)C=O [glucose-6-O-oleate],Licorice taste modulation effect,[1],significant licorice taste masking effect
same,Licorice taste modulation effect,"SG95 model system, with and without nose clip, at least 95%",significant licorice taste masking effect
same,Bitter taste modulation effect,"without nose clip, significance 95%",significant bitter enhancing effect
same,Sweet lingering modulation effect,"without nose clip, significance 95%, model system not stated",significant sweet lingering masking effect
glucose-6-O-oleyl derivative,Sweet lingering modulation effect,[2],significant sweet lingering masking effect
same,Flavor intensity modulation effect,"beverage grapefruit, significance 95%",significant flavor intensity masking effect
